Reference: patent US8895547B2, “Substituted phenyl-oxathiazine derivatives, method for producing them, drugs containing said compounds and the use thereof” (Sanofi, priority 2011, dated 2014)

Each compound was assayed against T1, human 11β-HSD1 (Homo sapiens, UniProt P28845) (assay: Enzymatic 11beta-HSD1 test (SPA-based detection)). Details: human 11β-HSD1 microsome fraction, [1,2-3H]-cortisone, NADPH, 37° C. 1 hour.
T1 construct: host or cells: microsome fraction
Type: biochemical
In short: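 Human 11β-HSD1 microsomes (0.2 µg protein) converted [1,2-3H]-cortisone ([…]) for 1 h at 37 °C. The reaction buffer was HEPES/KCl/NaCl/MgCl2 with 0.25 mM NADPH, with compounds added in DMSO. The reaction was stopped with SPA beads, anti-cortisol monoclonal antibody and 0.01 mM SSR110887; after 1 h at room temperature, [3H]-cortisol was scintillation-counted.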

T1 sequence (P28845 whole entry): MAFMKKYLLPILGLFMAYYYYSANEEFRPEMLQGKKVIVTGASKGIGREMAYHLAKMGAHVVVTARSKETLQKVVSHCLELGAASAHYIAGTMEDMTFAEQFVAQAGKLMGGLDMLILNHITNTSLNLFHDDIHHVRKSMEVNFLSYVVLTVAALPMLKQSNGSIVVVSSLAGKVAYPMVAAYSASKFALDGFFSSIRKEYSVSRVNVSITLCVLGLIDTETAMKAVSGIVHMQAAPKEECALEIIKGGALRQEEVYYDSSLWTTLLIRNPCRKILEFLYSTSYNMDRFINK

SMILES	IC50
CC(=O)Oc1ccc(C2C(C)(C)OC(N[C@@H](CCO)c3ccccc3F)=NS2(=O)=O)cc1 (stereo partly drawn) [Example 155, Acetic acid 4-{2-[(S)-1-(2-fluorophenyl)-3-hydroxy-propylamino]-6,6-dimethyl-4,4-dioxo-5,6-dihydro-4H-4lambda6-[1,4,3]oxathiazin-5-yl}-phenyl ester]	0.017 µM
C[C@H](NC1=NS(=O)(=O)C(c2ccc(-c3cccc(C(N)=O)c3)cc2)C(C)(C)O1)c1ccccc1F (stereo partly drawn) [Example 156, 4′-{2-[(S)-1-(2-fluorophenyl)-ethylamino]-6,6-dimethyl-4,4-dioxo-5,6-dihydro-4H-4lambda6-[1,4,3]oxathiazin-5-yl}-biphenyl-3-carboxamide]	0.012 µM
C[C@H](NC1=NS(=O)(=O)C(c2ccc(-c3ccc(C(N)=O)cc3)cc2)C(C)(C)O1)c1ccccc1F (stereo partly drawn) [Example 157, 4′-{2-[(S)-1-(2-fluorophenyl)-ethylamino]-6,6-dimethyl-4,4-dioxo-5,6-dihydro-4H-4lambda6-[1,4,3]oxathiazin-5-yl}-biphenyl-4-carboxamide]	0.02 µM
CC1(C)OC(N[C@@H](CCO)c2ccccc2F)=NS(=O)(=O)C1c1cccnc1 (stereo partly drawn) [Example 161, (S)-3-(6,6-Dimethyl-4,4-dioxo-5-pyridin-3-yl-5,6-dihydro-4H-4lambda6-[1,4,3]oxathiazin-2-ylamino)-3-(2-fluorophenyl)-propan-1-ol]	0.011 µM
CC(=O)c1ccc(C2C(C)(C)OC(N[C@@H](C)c3ccccc3F)=NS2(=O)=O)cc1 (stereo partly drawn) [Example 163, 1-(4-{2-[(S)-1-(2-fluorophenyl)-ethylamino]-6,6-dimethyl-4,4-dioxo-5,6-dihydro-4H-4lambda6-[1,4,3]oxathiazin-5-yl}-phenyl)-ethanone]	0.015 µM
C[C@H](NC1=NS(=O)(=O)C(c2ccc(-c3ccccc3)nc2)C(C)(C)O1)c1ccccc1F (stereo partly drawn) [Example 164, [6,6-Dimethyl-4,4-dioxo-5-(6-phenyl-pyridin-3-yl)-5,6-dihydro-4H-4lambda6-[1,4,3]oxathiazin-2-yl]-[(S)-1-(2-fluorophenyl)-ethyl]-amine]	0.027 µM
CC1(C)OC(N[C@@H](CCO)c2ccccc2F)=NS(=O)(=O)C1c1ccc(-c2ccccc2)nc1 (stereo partly drawn) [Example 165, (S)-3-[6,6-Dimethyl-4,4-dioxo-5-(6-phenyl-pyridin-3-yl)-5,6-dihydro-4H-4lambda6-[1,4,3]oxathiazin-2-ylamino]-3-(2-fluorophenyl)-propan-1-ol]	0.007 µM

The remaining lines, values ahead:

IC50	SMILES
0.038 µM	C[C@H](NC1=NS(=O)(=O)C(c2ccc(C3CCNCC3)cc2)C(C)(C)O1)c1ccccc1F (stereo partly drawn) [Example 158, [6,6-Dimethyl-4,4-dioxo-5-(4-piperidin-4-yl-phenyl)-5,6-dihydro-4H-4lambda6-[1,4,3]oxathiazin-2-yl]-[(S)-1-(2-fluorophenyl)-ethyl]-amin]
0.108 µM	C[C@H](NC1=NS(=O)(=O)C(c2ccc(C3CCN(C)CC3)cc2)C(C)(C)O1)c1ccccc1F (stereo partly drawn) [Example 159, {6,6-Dimethyl-5-[4-(1-methyl-piperidin-4-yl)-phenyl]-4,4-dioxo-5,6-dihydro-4H-4lambda6-[1,4,3]oxathiazin-2-yl}-[(S)-1-(2-fluorophenyl)-ethyl]-amine]
0.064 µM	C[C@H](NC1=NS(=O)(=O)C(c2ccc(C3CCN(CCO)CC3)cc2)C(C)(C)O1)c1ccccc1F (stereo partly drawn) [Example 160, 2-[4-(4-{2-[(S)-1-(2-fluorophenyl)-ethylamino]-6,6-dimethyl-4,4-dioxo-5,6-dihydro-4H-4lambda6-[1,4,3]oxathiazin-5-yl}-phenyl)-piperidin-1-yl]-ethanol]
0.052 µM	C[C@H](NC1=NS(=O)(=O)C(c2ccc(C(C)(C)O)cc2)C(C)(C)O1)c1ccccc1F (stereo partly drawn) [Example 162, 2-(4-{2-[(S)-1-(2-fluorophenyl)-ethylamino]-6,6-dimethyl-4,4-dioxo-5,6-dihydro-4H-4lambda6-[1,4,3]oxathiazin-5-yl}-phenyl)-propan-2-ol]
